Data on 37 molecules can be found in ChEMBL document CHEMBL1201862, “PubChem BioAssay data set” (2004).

What is called EC50 is the concentration that produces a half-maximal response. What is called AC50 is the concentration at which the activity in the assay is half-maximal. One may read the IC50 as the concentration that inhibits the measured activity by half.

Calls of active or inactive are those of the source.

Experiment [1] has as its system Streptococcus sp. 'group A'. Briefly: growth inhibition of control SK(-) GAS strain, dose response, counter-screen for streptokinase expression inhibitor project, luminescence, kanamycin, BacTiterGlo, confirmation (AID 1900). Format: functional, organism-based. For orientation: Counterscreens check selectivity or assay interference.
In another experiment the target is T1, Streptokinase A (Streptococcus pyogenes serotype M1, UniProt P10520).
T1 sequence (P10520 whole entry): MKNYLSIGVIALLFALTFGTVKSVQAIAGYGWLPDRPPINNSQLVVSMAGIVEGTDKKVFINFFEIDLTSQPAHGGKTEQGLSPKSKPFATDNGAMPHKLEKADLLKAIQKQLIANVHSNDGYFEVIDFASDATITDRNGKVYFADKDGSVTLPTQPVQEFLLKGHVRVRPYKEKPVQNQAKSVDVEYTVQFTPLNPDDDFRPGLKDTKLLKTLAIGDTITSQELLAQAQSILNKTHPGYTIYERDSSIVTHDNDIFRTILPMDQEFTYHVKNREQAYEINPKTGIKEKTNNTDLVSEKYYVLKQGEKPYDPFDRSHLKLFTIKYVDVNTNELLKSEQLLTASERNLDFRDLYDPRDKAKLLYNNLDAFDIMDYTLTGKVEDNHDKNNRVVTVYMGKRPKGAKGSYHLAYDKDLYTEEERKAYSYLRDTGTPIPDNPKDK
Briefly: S. pyogenes streptokinase expression inhibitors, potency, dose response, plasminogen activation absorbance, OD405 (AID 1914).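 Also: secreted streptokinase activity via plasminogen activation per viability signal from cell pellet.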 Format: functional, Streptococcus pyogenes M1 GAS.

For the next experiment, the system named is Streptococcus. Briefly: Group A Streptococcus viability loss, dose response, counter-screen for streptokinase expression inhibitor project, luminescence, BacTiterGlo (AID 1915).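 Also: potency for reduction of bacterial viability or growth.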 Type of experiment: functional, organism-based.
A short description of experiment [2]: Luminescence Cell-Based Dose Confirmation HTS to Identify Activators of 5'UTR Stem-Loop Driven Alpha-Synuclein mRNA Translation in H4 Neuroglioblastoma Cells. [Related pubchem assays: 1829 (Project Summary), 1814 (Primary HTS)]. Format: functional.
Experiment [3] can be described thus: Luminescence Cell-Based Dose Response HTS to Identify Activators of Luciferase Translation or Activity in H4 […] Cells. [Related pubchem assays: 1829 (Project Summary), 1814 (Primary HTS)]. Type of experiment: functional.
Another experiment concerns H4. Briefly: Luminescence Cell-Based Dose Response HTS to Identify Activators of 5'UTR Stem-Loop Driven Prion Protein mRNA Translation in H4 Neuroglioblastoma Cells. [Related pubchem assays: 1829 (Project Summary), 1814 (Primary HTS)]. Format: functional. Conditions: Homo sapiens.
In experiment [4] the target is T2, Heat shock factor protein 1 (Mus musculus, UniProt P38532).
T2 sequence (P38532 whole entry): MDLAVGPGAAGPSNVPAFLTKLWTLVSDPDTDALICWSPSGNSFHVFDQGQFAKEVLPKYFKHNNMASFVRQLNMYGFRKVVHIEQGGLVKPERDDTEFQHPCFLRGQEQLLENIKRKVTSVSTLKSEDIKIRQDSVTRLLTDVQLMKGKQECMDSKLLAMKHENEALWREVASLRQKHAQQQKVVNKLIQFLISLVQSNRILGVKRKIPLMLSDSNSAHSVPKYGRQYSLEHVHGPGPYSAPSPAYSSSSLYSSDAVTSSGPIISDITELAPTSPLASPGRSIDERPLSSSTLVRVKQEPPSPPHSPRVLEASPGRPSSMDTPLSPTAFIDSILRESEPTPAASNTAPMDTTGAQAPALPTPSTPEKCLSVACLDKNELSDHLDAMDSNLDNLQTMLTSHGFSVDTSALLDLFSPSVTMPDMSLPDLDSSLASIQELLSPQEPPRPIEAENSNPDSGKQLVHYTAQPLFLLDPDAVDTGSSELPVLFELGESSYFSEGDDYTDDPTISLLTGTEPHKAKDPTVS
Briefly: HSF1 potentiators in luciferase reporter cells, confirmation, cell-based, NIH3T3, luminescence, dose retest (AID 435004).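 Also: stress induced by proteasome inhibitor MG132 added 30 min after compound; luciferase reporter driven by HSF1 response element in NIH3T3 cells; actives raise luminescence as potentiators of the MG132 stress response.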 Type of experiment: functional. (In general: In a reporter assay the amount or activity of a reporter protein is the signal.)

A short description of experiment [5]: Luminescence Cell-Based Dose Retest to Confirm Inhibitors of Cancer Stem Cells. [Related pubchem assays (depositor defined):AID2717, AID2721]. Format: functional. Conditions: Homo sapiens.
Experiment [6] can be described thus: inhibitors of intracellular T. cruzi replication, confirmation, NIH3T3 host cells, beta-gal luminescence (AID 2044).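 Also: intracellular parasites grown in NIH/3T3 mouse fibroblasts as host cells; luminescent beta-galactosidase reporter signal from transgenic T. cruzi replicating inside host cells; inhibitors lower the luminescence signal.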 Format: functional, cell-based.
Experiment [7] can be described thus: cytotoxicity toward NIH3T3 fibroblasts, dose response, counter-screen, cell-based, ATP luminescence, mouse fibroblasts (AID 2010).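 Also: cells exposed to compound for about 90 hours before reading.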 Format: functional.
In experiment [8] the target is T2, Heat shock factor protein 1. The experiment is described as follows: inhibition of MG132-induced HSE-luciferase signal, confirmation, cell-based, NIH3T3, luminescence, dose retest (AID 2382).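 Also: NIH3T3 fibroblasts with HSF1-driven luciferase reporter stressed by proteasome inhibitor MG132; luminescence from HSF1-driven luciferase expression after 8 hours of MG132 stress.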 Type of experiment: functional.
Another experiment has as its target Cytochrome P450 2C19 (Homo sapiens, UniProt P33261). Briefly: Cytochrome panel assay with activity outcomes. Panel member name: p450-cyp2c19 Compounds with AC50 equal or less than 10 uM are considered active. The conditions noted are these: read-out: AC50. Format: functional.
Experiment [9] has as its target T3, Rac GTPase-activating protein 1 (Homo sapiens, UniProt Q9H0H5).
T3 sequence (Q9H0H5 whole entry): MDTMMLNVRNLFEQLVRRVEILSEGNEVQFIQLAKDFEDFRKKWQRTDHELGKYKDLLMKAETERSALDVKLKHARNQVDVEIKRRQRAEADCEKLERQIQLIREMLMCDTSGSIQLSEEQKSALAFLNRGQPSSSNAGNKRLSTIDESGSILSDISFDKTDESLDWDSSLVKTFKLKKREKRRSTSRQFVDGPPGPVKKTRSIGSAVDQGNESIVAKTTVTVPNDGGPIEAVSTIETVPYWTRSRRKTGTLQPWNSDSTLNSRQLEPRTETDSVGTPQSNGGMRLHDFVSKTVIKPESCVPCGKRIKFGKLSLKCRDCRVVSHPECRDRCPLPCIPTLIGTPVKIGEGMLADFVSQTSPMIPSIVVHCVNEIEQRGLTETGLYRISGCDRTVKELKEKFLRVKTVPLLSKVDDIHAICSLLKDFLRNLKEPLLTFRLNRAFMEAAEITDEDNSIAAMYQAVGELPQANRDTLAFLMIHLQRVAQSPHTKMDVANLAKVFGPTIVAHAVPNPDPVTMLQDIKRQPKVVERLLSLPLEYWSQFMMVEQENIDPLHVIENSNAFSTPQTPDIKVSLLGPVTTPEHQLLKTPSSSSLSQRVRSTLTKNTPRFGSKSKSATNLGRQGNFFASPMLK
The experiment is described as follows: MgcRacGAP GTPase-activating activity inhibitors, confirmation, biochemical, ADP Hunter fluorescence, primary and confirmatory (AID 624330). Format: functional.

Sequence of Cytochrome P450 2C19 (P33261 whole entry): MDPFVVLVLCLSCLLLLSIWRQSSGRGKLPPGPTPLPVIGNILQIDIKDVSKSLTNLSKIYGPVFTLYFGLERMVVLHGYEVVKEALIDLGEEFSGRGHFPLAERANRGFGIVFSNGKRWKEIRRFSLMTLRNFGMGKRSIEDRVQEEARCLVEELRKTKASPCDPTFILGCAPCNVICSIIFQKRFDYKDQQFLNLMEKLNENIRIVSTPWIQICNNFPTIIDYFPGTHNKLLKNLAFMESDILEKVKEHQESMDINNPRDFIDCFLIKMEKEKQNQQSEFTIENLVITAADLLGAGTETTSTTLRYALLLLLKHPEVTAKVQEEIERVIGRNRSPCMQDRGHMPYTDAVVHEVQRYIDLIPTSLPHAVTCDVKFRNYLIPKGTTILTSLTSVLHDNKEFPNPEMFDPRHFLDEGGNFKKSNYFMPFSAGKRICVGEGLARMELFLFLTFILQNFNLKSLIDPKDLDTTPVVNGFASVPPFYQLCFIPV

Regarding `CN(CC1CCCO1)S(=O)(=O)c1ccc(C(=O)Nc2ccccc2F)cc1` (stereo unspecified), the EC50 (in experiment [1]; at Streptokinase A; with Streptococcus) was > 150 µM (not active) each time.

With `CC(C)(C)c1ccc(C(=O)NCCN2CCOCC2)cc1`, the EC50 in experiment [2] is 12.5 µM (active); in experiment [3], 11.8 µM (active); with H4, 18.3 µM (active).

Regarding `O=C(CSc1nnc(-c2c[nH]c3ccccc23)o1)c1ccccc1`, the EC50 in experiment [4] was > 260 µM (inactive).

In the case of `N=c1c(S(=O)(=O)c2ccc(Br)cc2)cc2c(=O)n3ccccc3nc2n1C1CCCC1`, the EC50 in [4] is > 260 µM (inactive).

Turning to `CC(Sc1nnc(NCc2ccccc2)s1)C(=O)Nc1ccc2c(c1)C(=O)c1ccccc1C2=O` (stereo unspecified), the EC50 is 14.1 µM (active) in [2], 9.18 µM (active) in [3] and 49.2 µM (active) in the experiment with H4.

Turning to `Cc1cc2nnc(SCC(=O)NCc3ccco3)n2c2ccccc12`, the figures for the EC50 (in experiment [2]; in experiment [3]; in the experiment on H4) were > 120 µM (not active), 5.13 µM (active) and > 120 µM (not active), respectively. Also, the AC50 in experiment [5] was 2.9 µM (active).

With `CC(C)C[C@H](NC(=O)c1[nH]cnc1C(=O)N[C@@H](C)C(=O)OC(C)(C)C)C(=O)OCc1ccccc1`, the EC50 in experiment [1] was 8.12 µM (active); on Streptokinase A, > 150 µM (not active); with Streptococcus, 40.9 µM (active).

Consider `COc1ccc(C2/C=C\CN(C(=O)c3ccccc3)CC(=O)N2Cc2ccc(F)cc2)cc1` (stereo unspecified), for which the EC50 (in experiment [1]; at Streptokinase A; with Streptococcus) was > 150 µM (not active) each time.

`c1ccc(CN2CCC(Nc3nc(-c4cccnc4)nc4ccccc34)CC2)cc1`: the EC50 is 13 µM (active) in [2]; > 120 µM (not active) in experiment [3]; 104 µM (active) in the experiment with H4; 1.34 µM (active) in [6]; 8.99 µM (active) in [7].

As to `COC(=O)[C@@H](NC(=O)NC1CCCc2ccccc21)C(C)C` (stereo partly specified), the EC50 in experiment [4] was > 260 µM (inactive).

On to `Cc1ccc(NC(=O)NC2=N/C(=C(/C#N)C(=O)N3CCCC3)c3ccccc32)cc1`, for which the EC50 in experiment [8] is recorded as > 195 µM (not active).

In the case of `Cc1c(Cl)cccc1NC(=O)c1cccc(OC(F)F)c1`, the EC50 in experiment [8] is on record as > 195 µM (not active).

`O=[N+]([O-])c1ccc(NCCOc2ccccc2Cl)nc1`: the 50% effective concentration (EC50) in experiment [8] is on record as > 195 µM (not active).

In the case of `O=c1c2cccnc2n(-c2ccccc2)n1Cc1c(Cl)cccc1Cl`, the EC50 in experiment [8] is > 195 µM (not active).

Turning to `COc1ccc(-c2oc3ccccc3c2C(=O)Oc2ccccc2)cc1`, the EC50 in experiment [8] was 152 µM (active).

For the molecule `c1ccc(-c2nc(C3CCCCC3)c3ccccc3n2)cc1`, the EC50 is 3.71 µM (active) in [1], 21.6 µM (active) on Streptokinase A and 25.2 µM (active) in the experiment with Streptococcus.

Turning to `CCOC(=O)c1c(C)nc2c(C)cccn12`, the EC50 in experiment [8] is > 195 µM (not active).

Regarding `COc1cccc(NN=C2C(=O)NC(=S)NC2=O)c1`, in [4], the 50% effective concentration (EC50) was 9.18 µM (active).

In the case of `CCCCCCCN1N=C(C)C(C(=O)c2ccccc2)C1=O` (stereo unspecified), the EC50 in experiment [1] is 2.89 µM (active); on Streptokinase A, > 150 µM (not active); with Streptococcus, 30.9 µM (active).

For `CC(=O)Oc1ccc(Cn2cnc3cc4ccccc4cc32)cc1`, the EC50 in experiment [4] is 44.4 µM (active).

Regarding `O=c1c2ccccc2nnn1-c1ccc(Br)cc1`, the EC50 in experiment [2] was 0.157 µM (active); in [3], 0.1 µM (active); with H4 it was 19 µM (active).

On to `COc1ccc(S(=O)(=O)Nc2ccncc2)c(C)c1C`, for which the EC50 in experiment [4] is > 260 µM (inactive).

For `O=C(Nc1ccc(F)c(Cl)c1)Nc1csc2ccccc12`, the EC50 was 6.52 µM (active) in experiment [1], > 50 µM (not active) at Streptokinase A and 5.69 µM (active) in the experiment on Streptococcus.

As for `O=C(c1ccccc1)c1ccc(OCC(O)CN2CCCC2)cc1` (stereo unspecified), in [8], the EC50 is > 195 µM (not active).

For the molecule `Cc1cc(C)cc(OCC(O)CN2CCN(C(=O)c3ccco3)CC2)c1` (stereo unspecified), the EC50 in experiment [8] is reported as > 195 µM (not active).

For the molecule `COc1ccc(NC(=O)CSc2nnc3ccc(-c4ccncc4)nn23)cc1OC`, in [8], the EC50 was > 195 µM (not active).

`COc1ccccc1N1CC(C(=O)Nc2nnc(SCC(=O)N3CCCC3)s2)CC1=O` (stereo unspecified): the EC50 (in experiment [1]; on Streptokinase A; with Streptococcus) was > 150 µM (not active) throughout.

For `CCCc1n[nH]c2c1C1(C(=O)N(Cc3ccccc3)c3ccccc31)C(C(=O)OC)=C(N)O2` (stereo unspecified), in [4], the EC50 is > 260 µM (inactive).

With `COc1ccc(C2=NN(C(C#N)c3ccc(OC)cc3)C(c3ccccc3)C2)cc1` (stereo unspecified), the EC50 in [2] is 5.24 µM (active); in experiment [3], 8.15 µM (active); in the experiment on H4, > 120 µM (not active).

In the case of `O=[N+]([O-])c1ccc(N2CCNCC2)cc1NCC1CCCO1` (stereo unspecified), in experiment [8], the EC50 is listed as > 195 µM (not active). In addition, at Cytochrome P450 2C19, the AC50 was 39.8 µM (inconclusive).

Consider `COc1ccccc1-c1[nH]nc2c1[C@H](C)CC[C@H]2C(C)C`, for which the figures for the EC50 (in experiment [1]; on Streptokinase A; with Streptococcus) were 10.9 µM (active), > 150 µM (not active) and > 150 µM (not active), respectively.

On to `Cc1cc(C(=O)N2CCN(c3cccc(Cl)c3)CC2)c(C)o1`, for which the EC50 in experiment [2] is > 120 µM (not active); in experiment [3] it was 20.8 µM (active); in the experiment on H4 it was > 120 µM (not active).

Regarding `O=C(CNC(=O)c1ccco1)Nc1ccc2c(c1)OCCO2`, in experiment [8], the EC50 was 0.274 µM (active).

On to `CCc1nnc(NC(=O)C(NC(=O)c2ccccc2Cl)C(C)C)s1` (stereo unspecified), for which the EC50 in experiment [4] was > 260 µM (inactive).

As to `Cc1cccn2c(=O)c(/C=N/c3ccccc3)c(NCc3ccco3)nc12`, the EC50 (in [2]; in experiment [3]; with H4) was > 120 µM (not active) throughout.

For `CN(C)c1ccc(/C=C2/C(=N\O)C3CCN2CC3)cc1`, the results for the EC50 (in experiment [2]; in [3]; in the experiment with H4) were 26 µM (active), 6.23 µM (active) and 28.8 µM (inconclusive), respectively. Further, the IC50 in experiment [9] is 75.5 µM (active).

In the case of `C=CCn1/c(=N/C(=O)C2CC2)sc2cc(NC(C)=O)ccc21`, in experiment [8], the EC50 is recorded as > 195 µM (not active).
